Assay results published in ChEMBL document CHEMBL1201862, “PubChem BioAssay data set” (2004).
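Compound exposure: 48 hours, 5 concentrations, 96-well plates. GI50 marks 50% less growth.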 Activity calls are given as the source filed them. Cut-off read from the data, not from the text of the source: active = GI50 up to about 1.1 µM and inactive = higher.

Assays:
Assay in all cases: NCI anticancer screen, dose series, 48 h
COLO 205 = tested on: COLO 205
CAKI-1 = tested on: CAKI-1
HCC 2998 = tested on: HCC 2998
NCI-H226 = tested on: NCI-H226
SK-MEL-5 = tested on: SK-MEL-5
U-251 = tested on: U-251
OVCAR-5 = tested on: OVCAR-5
OVCAR-3 = tested on: OVCAR-3
SK-MEL-28 = tested on: SK-MEL-28
KM12 = tested on: KM12
MOLT-4 = tested on: MOLT-4
OVCAR-4 = tested on: OVCAR-4
UO-31 = tested on: UO-31
A549 = tested on: A549
LOX IMVI = tested on: LOX IMVI
NCI-H460 = tested on: NCI-H460
SNB-19 = tested on: SNB-19
SW-620 = tested on: SW-620
UACC-62 = tested on: UACC-62
HOP-92 = tested on: HOP-92

SMILES	GI50 (COLO 205)	GI50 (CAKI-1)	GI50 (HCC 2998)	GI50 (NCI-H226)	GI50 (SK-MEL-5)	GI50 (U-251)	GI50 (OVCAR-5)	GI50 (OVCAR-3)	GI50 (SK-MEL-28)	GI50 (KM12)	GI50 (MOLT-4)	GI50 (OVCAR-4)	GI50 (UO-31)	GI50 (A549)	GI50 (LOX IMVI)	GI50 (NCI-H460)	GI50 (SNB-19)	GI50 (SW-620)	GI50 (UACC-62)	GI50 (HOP-92)
CC(=O)OCc1cc(=O)n(C)c2c3c4c(cc12)c(C)cc(=O)n4CO3	1.23 µM (inactive)	1.95 µM (inactive)	1.52 µM (inactive)	1.58 µM (inactive)	1.66 µM (inactive)	1.23 µM (inactive)	2.73 µM (inactive)	1.45 µM (inactive)	1.64 µM (inactive)	1.23 µM (inactive)	0.478 µM (active)	1.42 µM (inactive)	1.64 µM (inactive)	1.69 µM (inactive)	1.26 µM (inactive)	0.52 µM (active)	1.61 µM (inactive)	0.489 µM (active)	1.34 µM (inactive)	1.95 µM (inactive)
COc1ccc(/C(C)=N/NC(=S)N(C)C)c(O)c1	2.59 µM (inactive)	4.92 µM (inactive)	24.6 µM (inactive)	4.09 µM (inactive)	12.1 µM (inactive)	7.83 µM (inactive)	3.42 µM (inactive)	4.85 µM (inactive)	16.6 µM (inactive)	4.92 µM (inactive)	4.57 µM (inactive)	2.32 µM (inactive)	5.65 µM (inactive)	4.52 µM (inactive)	2.42 µM (inactive)	14 µM (inactive)	22 µM (inactive)	5.28 µM (inactive)	4.35 µM (inactive)	29.5 µM (inactive)
Cn1c(/C=C/CO)c(CO)c2c1C(=O)C=C(N1CC1)C2=O [APAZIQUONE]	< 0.0122 µM (active)	< 0.01 µM (active)	< 0.01 µM (active)	0.0185 µM (active)	< 0.01 µM (active)	< 0.01 µM (active)	< 0.0122 µM (active)	0.0206 µM (active)	0.0198 µM (active)	< 0.01 µM (active)	0.299 µM (active)	0.0516 µM (active)	0.0142 µM (active)	< 0.01 µM (active)	< 0.01 µM (active)	< 0.01 µM (active)	< 0.01 µM (active)	< 0.01 µM (active)	< 0.01 µM (active)	0.222 µM (active)
C1=Nc2ccccc2Cn2nncc21	> 100 µM (inactive)	29.9 µM (inactive)	99.5 µM (inactive)	> 100 µM (inactive)	> 10 µM (inactive)	26 µM (inactive)	> 100 µM (inactive)	> 100 µM (inactive)	80.7 µM (inactive)	47.1 µM (inactive)	> 100 µM (inactive)	> 100 µM (inactive)	89.1 µM (inactive)	> 100 µM (inactive)	46.9 µM (inactive)	> 100 µM (inactive)	> 100 µM (inactive)	34 µM (inactive)	23 µM (inactive)	54.7 µM (inactive)
Cc1cc(C)c(S(=O)(=O)N(CCCN)OCCCN)c(C)c1	> 100 µM (inactive)	> 100 µM (inactive)	> 100 µM (inactive)	> 100 µM (inactive)	> 100 µM (inactive)	> 100 µM (inactive)	0.881 µM (active)	56 µM (inactive)	> 100 µM (inactive)	> 100 µM (inactive)	> 100 µM (inactive)	> 100 µM (inactive)	> 100 µM (inactive)	> 100 µM (inactive)	> 100 µM (inactive)	> 100 µM (inactive)	> 100 µM (inactive)	> 100 µM (inactive)	> 100 µM (inactive)	64.1 µM (inactive)
CO/N=C\c1cc(O)c(O)c(/C=N/OC)c1	37.9 µM (inactive)	23.3 µM (inactive)	32.8 µM (inactive)	30.3 µM (inactive)	55.7 µM (inactive)	34.1 µM (inactive)	> 100 µM (inactive)	4.82 µM (inactive)	> 100 µM (inactive)	38.8 µM (inactive)	8.17 µM (inactive)	24.9 µM (inactive)	11.3 µM (inactive)	26 µM (inactive)	41.3 µM (inactive)	23.1 µM (inactive)	59.6 µM (inactive)	36.6 µM (inactive)	38.8 µM (inactive)	61.1 µM (inactive)
